# Reference: patent publication US9056832B2, “Pyridine compounds and the users thereof” (Purdue Pharma L.P., priority 2010, dated 2015)
# Where two headings read alike, the source gives them in different places.
# Legend:
# human Nav1.7 = human Nav1.7 (Homo sapiens (Human), UniProt Q15858); experiment: FLIPR or FLIPR TETRA sodium dye assay with KCl and test article pre-incubation; type: cell-based; settings: read-out: Nav1.7 IC50 (μM) ± SEM
# [1] = system: neuropathic hyperalgesia in rats; experiment: Seltzer model (partial sciatic nerve ligation) of neuropathic pain, paw withdrawal threshold; type: in vivo; settings: 30 mg/kg p.o., rat; for Time post-dose (h) with statistically significant increase in paw withdrawal threshold: Seltzer model, assessed 1, 3 and 5 h after administration
# Protocol: Test Animals: Each experiment uses rats weighing between 200-260 g at the start of the experiment. The rats are group-housed and have free access to food and water at all times, except prior to oral administration of a test compound when food is removed for 16 hours before dosing. A control group acts as a comparison to rats treated with a compound of Formulae I-XXXIII. The control group is administered the carrier as used for the test compound. The volume of carrier administered to the control group is the same as the volume of carrier and test compound administered to the test group.
# In the Seltzer model, the partial sciatic nerve ligation model of neuropathic pain was used to produce neuropathic hyperalgesia in rats (Seltzer et al., Pain 43:205-218 (1990)). Partial ligation of the left sciatic nerve was performed under inhalation anesthesia, e.g., isoflurane/O2. Following induction of anesthesia, the left thigh of the rat was shaved and the sciatic nerve exposed at high thigh level through a small incision and was carefully cleared of surrounding connective tissues at a site near the trocanther just distal to the point at which the posterior biceps semitendinosus nerve branches off of the common sciatic nerve. A 7-0 silk suture was inserted into the nerve, e.g., with a ⅜ curved, reversed-cutting mini-needle, and tightly ligated so that the dorsal ⅓ to ½ of the nerve thickness was held within the ligature. The wound was closed, e.g., with a single muscle suture (4-0 nylon (Vicryl)) and vetbond tissue glue. Following surgery, the wound area was dusted with antibiotic powder. Sham-treated rats undergo an identical surgical procedure except that the sciatic nerve is not manipulated. Following surgery, animals were weighed and placed on a warm pad until they recovered from anesthesia. Animals were then returned to their home cages until behavioral testing began. The animals were assessed for response to noxious mechanical stimuli by determining PWT, as described below, prior to surgery (baseline), then immediately prior to and 1, 3, and 5 hours after drug administration for rear paw of the animal. Percentage reversal of neuropathic hyperalgesia is defined as: […]
# The following compounds were tested and produced a statistically significant increase in paw withdrawal threshold when administered at 30 mg/kg p.o. in the Seltzer model of neuropathic pain at the time points indicated:
# Mechanical Hyperalgesia: Sensitivity to noxious mechanical stimuli can be measured in animals using the paw pressure test to assess mechanical hyperalgesia. In rats, hind paw withdrawal thresholds (“PWT”), measured in grams, in response to a noxious mechanical stimulus are determined using an analgesymeter (Model 7200, commercially available from Ugo Basile of Italy), as described in Stein (Biochemistry & Behavior 31: 451-455 (1988)). The rat's paw is placed on a small platform, and weight is applied in a graded manner up to a maximum of 250 grams. The endpoint is taken as the weight at which the paw is completely withdrawn. PWT is determined once for each rat at each time point. PWT can be measured only in the injured paw, or in both the injured and non-injured paw. In one non-limiting embodiment, mechanical hyperalgesia associated with nerve injury induced pain (neuropathic pain) can be assessed in rats. Rats are tested prior to surgery to determine a baseline, or normal, PWT. Rats are tested again 2 to 3 weeks post-surgery, prior to, and at different times after (e.g. 1, 3, 5 and 24 hr) drug administration.
# [2] = recombinant human Nav1.7 in HEK293 cells, CoroNa Green sodium dye, veratridine + scorpion venom
# human Nav1.7, sequence (Q15858 other isoform, or with tags, fused parts or gaps): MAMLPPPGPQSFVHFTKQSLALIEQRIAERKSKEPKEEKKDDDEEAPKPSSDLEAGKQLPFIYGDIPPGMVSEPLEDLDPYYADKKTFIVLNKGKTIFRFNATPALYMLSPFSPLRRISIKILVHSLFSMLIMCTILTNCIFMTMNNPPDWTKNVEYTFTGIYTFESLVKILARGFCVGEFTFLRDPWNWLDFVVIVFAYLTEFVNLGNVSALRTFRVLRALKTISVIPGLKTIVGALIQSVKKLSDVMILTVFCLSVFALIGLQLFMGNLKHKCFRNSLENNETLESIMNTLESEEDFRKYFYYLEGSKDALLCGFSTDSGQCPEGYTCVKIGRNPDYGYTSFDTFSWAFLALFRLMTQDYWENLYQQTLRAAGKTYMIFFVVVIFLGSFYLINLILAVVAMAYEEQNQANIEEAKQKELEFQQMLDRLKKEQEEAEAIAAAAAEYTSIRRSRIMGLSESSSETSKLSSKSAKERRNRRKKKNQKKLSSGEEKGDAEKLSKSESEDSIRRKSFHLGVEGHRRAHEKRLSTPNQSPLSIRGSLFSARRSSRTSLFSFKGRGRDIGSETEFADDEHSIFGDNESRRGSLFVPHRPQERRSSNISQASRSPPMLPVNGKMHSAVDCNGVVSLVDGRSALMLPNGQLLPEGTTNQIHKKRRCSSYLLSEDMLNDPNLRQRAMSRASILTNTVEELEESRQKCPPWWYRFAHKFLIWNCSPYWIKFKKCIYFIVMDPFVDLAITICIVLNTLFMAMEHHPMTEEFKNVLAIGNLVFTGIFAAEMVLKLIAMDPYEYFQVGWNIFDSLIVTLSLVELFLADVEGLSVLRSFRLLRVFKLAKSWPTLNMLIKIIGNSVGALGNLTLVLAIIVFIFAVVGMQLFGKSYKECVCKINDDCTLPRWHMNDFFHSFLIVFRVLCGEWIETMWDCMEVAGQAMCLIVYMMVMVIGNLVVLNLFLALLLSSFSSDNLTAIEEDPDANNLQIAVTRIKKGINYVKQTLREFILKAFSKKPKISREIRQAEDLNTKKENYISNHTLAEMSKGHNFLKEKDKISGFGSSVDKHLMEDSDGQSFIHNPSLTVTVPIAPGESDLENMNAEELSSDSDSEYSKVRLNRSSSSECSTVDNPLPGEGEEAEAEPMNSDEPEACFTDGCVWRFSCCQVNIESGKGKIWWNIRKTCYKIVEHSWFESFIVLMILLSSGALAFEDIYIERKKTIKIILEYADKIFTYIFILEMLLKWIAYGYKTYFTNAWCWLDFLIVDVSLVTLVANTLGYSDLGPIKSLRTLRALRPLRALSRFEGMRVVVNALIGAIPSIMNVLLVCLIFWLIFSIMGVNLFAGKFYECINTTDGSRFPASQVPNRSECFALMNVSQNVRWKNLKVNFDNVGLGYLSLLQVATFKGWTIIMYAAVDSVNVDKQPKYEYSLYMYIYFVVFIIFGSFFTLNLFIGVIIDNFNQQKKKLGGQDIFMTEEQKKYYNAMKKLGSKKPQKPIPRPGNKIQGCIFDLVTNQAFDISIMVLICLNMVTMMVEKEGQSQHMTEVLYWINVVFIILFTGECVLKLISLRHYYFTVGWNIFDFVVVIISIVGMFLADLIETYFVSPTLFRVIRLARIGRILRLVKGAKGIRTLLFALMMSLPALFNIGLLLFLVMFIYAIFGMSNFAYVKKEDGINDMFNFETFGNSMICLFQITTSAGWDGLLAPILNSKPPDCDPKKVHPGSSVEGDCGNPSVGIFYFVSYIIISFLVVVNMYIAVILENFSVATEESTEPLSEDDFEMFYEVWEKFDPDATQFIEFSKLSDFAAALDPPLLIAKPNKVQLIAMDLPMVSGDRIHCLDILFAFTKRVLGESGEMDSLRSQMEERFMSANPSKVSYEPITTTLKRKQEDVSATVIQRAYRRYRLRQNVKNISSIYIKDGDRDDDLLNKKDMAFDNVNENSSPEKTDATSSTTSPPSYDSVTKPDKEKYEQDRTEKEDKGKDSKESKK
SMILES,IC50 (human Nav1.7) [µM],Time post-dose (h) with statistically significant increase in paw withdrawal threshold [1] [h],IC50 (human Nav1.7; [2]) [µM],increase in paw withdrawal threshold in the Seltzer model ([1]; vehicle 10% Tween 80 in water)
"N#Cc1cc(Oc2ccc(-c3cccc([C@H](O)CO)n3)cc2)ccc1C(F)(F)F [compound 18, (S)-5-(4-(6-(1,2-dihydroxyethyl)pyridin-2-yl)phenoxy)-2-(trifluoromethyl) benzonitrile]",2.8 ± 0.12,1,,
"NC(=O)c1cc([C@H](O)CO)cc(-c2ccc(Oc3ccc(C(F)(F)F)cc3)cc2)n1 [compound 30, (S)-4-(1,2-dihydroxyethyl)-6-(4-(4-(trifluoromethyl)phenoxy)phenyl) picolinamide]",,1,0.24 ± 0.07,
"N#Cc1cc(C(F)(F)F)ccc1Oc1ccc(-c2cccc(CNCCN3CCNC3=O)n2)cc1 [compound 63, 2-(4-(6-(((2-(2-oxoimidazolidin-1-yl)ethyl)amino)methyl)pyridin-2-yl)phenoxy)-5-(trifluoromethyl) benzonitrile]",,,0.09 ± 0.03,did not produce a statistically significant increase
"O=C1NCCN1CCNCc1cccc(-c2ccc(Oc3ccc(C(F)(F)F)cn3)cc2)n1 [compound 68, 1-(2-(((6-(4-((5-(trifluoromethyl)pyridin-2-yl)oxy)phenyl)pyridin-2-yl)methyl)amino)ethyl) imidazolidin-2-one]",,1,0.18 ± 0.09,
